Activity calls are given as the source filed them.
Assays:
Leucine aminopeptidase = target: T1, Leucine aminopeptidase (Plasmodium falciparum 3D7, UniProt Q8IL11); test: P. falciparum M17LAP inhibitors, primary screen, biochemical, fluorogenic H-Leu-NHMec substrate, 1536-well (AID 1619); type: functional
T1 sequence (Q8IL11 whole entry): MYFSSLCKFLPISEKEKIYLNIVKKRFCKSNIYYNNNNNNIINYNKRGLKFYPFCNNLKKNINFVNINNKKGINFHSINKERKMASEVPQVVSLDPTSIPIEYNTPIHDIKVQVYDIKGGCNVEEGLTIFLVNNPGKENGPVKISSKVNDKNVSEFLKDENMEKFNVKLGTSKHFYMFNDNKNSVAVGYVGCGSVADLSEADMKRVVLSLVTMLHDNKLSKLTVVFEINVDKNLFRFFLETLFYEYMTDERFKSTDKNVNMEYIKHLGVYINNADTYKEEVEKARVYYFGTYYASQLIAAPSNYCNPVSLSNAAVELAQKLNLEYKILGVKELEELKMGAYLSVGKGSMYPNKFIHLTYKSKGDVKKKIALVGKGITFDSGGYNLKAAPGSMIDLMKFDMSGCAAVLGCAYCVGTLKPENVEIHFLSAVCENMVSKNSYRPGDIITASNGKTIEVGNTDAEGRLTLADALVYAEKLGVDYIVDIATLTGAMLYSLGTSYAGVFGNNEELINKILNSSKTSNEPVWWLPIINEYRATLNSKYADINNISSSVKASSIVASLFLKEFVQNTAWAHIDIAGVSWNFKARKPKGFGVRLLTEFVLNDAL

HEK293 = test: EBV LMP1 TES2 canonical NF-kB signalling blockers – cell-based, HEK293, luciferase, cherry-pick, dose response (AID 588343); type: functional; conditions: Homo sapiens
[1] = non-specific 3'UTR reporter inhibition in Clone20-Shn3RL – cell-based, Renilla luciferase, cherry-picked, counter-screen for Shn3 inhibitor project, dose response (AID 624133); type: functional
[2] = loss of viability in HepG2 cells – cell-based, CellTiter-Glo, cherry-picked, cytotoxicity control for Shn3 inhibitor project, dose response (AID 624134); type: functional
[3] = reduction of Shn3 3'UTR-driven luciferase in osteoblasts – cell-based, Clone20 osteoblasts, firefly luciferase, cherry-picked, dose response (AID 624132); type: functional;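 note: firefly luciferase luminescence from reporter carrying the Shn3 3'UTR in osteoblasts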
[4] = target: T2, High affinity choline transporter 1 (Homo sapiens, UniProt Q9GZV3); test: human choline transporter blockers, potency – cell-based, 5-point CRC, membrane potential dye, dose response (AID 504840); type: functional
T2 sequence (Q9GZV3 whole entry): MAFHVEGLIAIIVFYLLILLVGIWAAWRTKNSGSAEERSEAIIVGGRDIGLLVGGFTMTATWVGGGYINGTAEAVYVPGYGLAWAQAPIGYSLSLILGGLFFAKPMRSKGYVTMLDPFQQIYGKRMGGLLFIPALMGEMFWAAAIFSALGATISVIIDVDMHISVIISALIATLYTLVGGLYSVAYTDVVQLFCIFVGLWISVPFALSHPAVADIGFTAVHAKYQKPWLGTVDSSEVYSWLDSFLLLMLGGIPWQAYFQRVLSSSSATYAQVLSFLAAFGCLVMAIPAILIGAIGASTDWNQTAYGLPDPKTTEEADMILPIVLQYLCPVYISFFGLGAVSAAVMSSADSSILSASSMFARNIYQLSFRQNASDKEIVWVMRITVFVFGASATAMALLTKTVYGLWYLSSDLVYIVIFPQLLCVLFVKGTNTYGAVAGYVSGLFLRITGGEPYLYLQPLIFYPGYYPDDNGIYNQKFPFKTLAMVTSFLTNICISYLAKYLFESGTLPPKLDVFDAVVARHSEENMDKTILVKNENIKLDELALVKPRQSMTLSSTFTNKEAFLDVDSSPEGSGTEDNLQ

cells = type: functional
Genome polyprotein = Genome polyprotein (dengue virus type 2, UniProt P29990); test: flavivirus cap methylation enzyme inhibition – biochemical, confirmation dose response, primary screen (AID 588689); type: functional
Genome polyprotein, sequence (P29990 2492-3391 limits assumed): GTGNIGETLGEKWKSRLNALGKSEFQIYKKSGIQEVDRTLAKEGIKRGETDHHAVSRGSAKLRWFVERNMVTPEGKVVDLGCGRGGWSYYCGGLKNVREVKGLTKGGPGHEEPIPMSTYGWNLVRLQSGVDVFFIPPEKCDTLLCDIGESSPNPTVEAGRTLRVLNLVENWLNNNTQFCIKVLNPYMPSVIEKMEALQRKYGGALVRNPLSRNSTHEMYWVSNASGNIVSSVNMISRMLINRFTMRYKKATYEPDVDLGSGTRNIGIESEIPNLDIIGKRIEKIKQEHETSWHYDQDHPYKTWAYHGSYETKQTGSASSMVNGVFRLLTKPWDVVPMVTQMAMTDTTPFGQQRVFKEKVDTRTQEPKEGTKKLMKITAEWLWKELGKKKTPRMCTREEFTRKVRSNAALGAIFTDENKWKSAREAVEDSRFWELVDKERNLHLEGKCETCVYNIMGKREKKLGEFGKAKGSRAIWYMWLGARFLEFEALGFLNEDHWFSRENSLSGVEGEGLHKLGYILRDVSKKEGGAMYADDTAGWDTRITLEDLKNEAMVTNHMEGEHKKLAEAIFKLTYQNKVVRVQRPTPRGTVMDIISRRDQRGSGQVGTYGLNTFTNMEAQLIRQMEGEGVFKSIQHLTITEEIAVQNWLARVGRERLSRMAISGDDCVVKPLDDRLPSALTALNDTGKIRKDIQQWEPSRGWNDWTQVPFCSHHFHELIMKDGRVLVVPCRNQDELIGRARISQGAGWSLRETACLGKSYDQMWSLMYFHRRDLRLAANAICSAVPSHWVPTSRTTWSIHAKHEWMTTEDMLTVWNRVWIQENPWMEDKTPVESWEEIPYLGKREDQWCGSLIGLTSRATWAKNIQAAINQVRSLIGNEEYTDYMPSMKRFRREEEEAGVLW

Cytochrome P450 2C9 = Cytochrome P450 2C9 (Homo sapiens, UniProt P11712)
Cytochrome P450 2C9, sequence (P11712 whole entry): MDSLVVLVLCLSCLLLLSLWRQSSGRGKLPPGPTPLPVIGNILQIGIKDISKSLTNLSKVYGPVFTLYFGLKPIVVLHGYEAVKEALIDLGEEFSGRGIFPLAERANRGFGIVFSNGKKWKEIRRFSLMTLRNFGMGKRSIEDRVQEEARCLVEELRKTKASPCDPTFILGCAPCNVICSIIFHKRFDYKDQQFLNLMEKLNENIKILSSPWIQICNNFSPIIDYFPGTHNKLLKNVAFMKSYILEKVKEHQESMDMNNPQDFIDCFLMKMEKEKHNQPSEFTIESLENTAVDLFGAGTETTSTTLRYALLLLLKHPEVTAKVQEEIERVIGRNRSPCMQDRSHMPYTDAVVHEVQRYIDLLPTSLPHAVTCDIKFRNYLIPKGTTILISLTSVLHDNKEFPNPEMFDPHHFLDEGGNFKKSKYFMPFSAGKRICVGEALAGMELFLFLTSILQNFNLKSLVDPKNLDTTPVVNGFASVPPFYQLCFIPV

[5] = Luminescence Cell-Based Dose Response HTS to Identify Activators of Luciferase Translation or Activity in H4 […] Cells. [Related pubchem assays: 1829 (Project Summary), 1814 (Primary HTS)]; type: functional
[6] = Luminescence Cell-Based Dose Confirmation HTS to Identify Activators of 5'UTR Stem-Loop Driven Alpha-Synuclein mRNA Translation in H4 Neuroglioblastoma Cells. [Related pubchem assays: 1829 (Project Summary), 1814 (Primary HTS)]; type: functional
Cytochrome P450 1A2 = target: T3, Cytochrome P450 1A2 (Homo sapiens, UniProt P05177);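 note: PubChem cytochrome P450 panel assay, CYP1A2 panel member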
T3 sequence (P05177 whole entry): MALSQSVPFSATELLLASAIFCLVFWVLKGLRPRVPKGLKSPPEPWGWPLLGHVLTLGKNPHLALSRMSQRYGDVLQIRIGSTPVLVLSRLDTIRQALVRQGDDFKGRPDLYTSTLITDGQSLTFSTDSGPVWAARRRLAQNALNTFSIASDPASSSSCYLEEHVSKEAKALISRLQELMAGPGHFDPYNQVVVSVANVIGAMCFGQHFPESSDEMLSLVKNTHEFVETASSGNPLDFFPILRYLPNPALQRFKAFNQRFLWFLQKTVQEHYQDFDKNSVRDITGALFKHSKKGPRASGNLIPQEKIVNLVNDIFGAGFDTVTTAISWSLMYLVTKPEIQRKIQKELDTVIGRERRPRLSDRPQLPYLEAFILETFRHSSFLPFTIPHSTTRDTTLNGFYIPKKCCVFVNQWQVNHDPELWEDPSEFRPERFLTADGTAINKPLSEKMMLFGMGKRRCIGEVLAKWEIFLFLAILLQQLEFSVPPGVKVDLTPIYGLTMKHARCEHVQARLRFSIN

H4 = test: Luminescence Cell-Based Dose Response HTS to Identify Activators of 5'UTR Stem-Loop Driven Prion Protein mRNA Translation in H4 Neuroglioblastoma Cells. [Related pubchem assays: 1829 (Project Summary), 1814 (Primary HTS)]; type: functional; conditions: Homo sapiens

O=C(NCC(=O)N1CCCC1C(=O)O)OC1CCCCC1 (configuration not stated)
IC50 (Leucine aminopeptidase): 39 µM (active)

COc1ccc(NC(=O)c2ccc(-c3ccccc3)cc2)cc1S(=O)(=O)N1CCOCC1
AC50 (HEK293): 0.698 µM (active)

O=C(c1ccoc1)N1CCN(c2cc(-c3cccc(F)c3)nc3cc(-c4cccc(Cl)c4)nn23)CC1
AC50 [1]: 12.9 µM (active)
AC50 [2]: > 70 µM (inactive)
AC50 [3]: 9.78 µM (active)

CCOc1ccc(NC(=O)CSc2nnc[nH]2)c([N+](=O)[O-])c1
IC50 (Leucine aminopeptidase): 5.46 µM (active)

CC(O)(c1ccncc1)c1nc(-c2cccc(C(F)(F)F)c2)cs1 (configuration not stated)
AC50 [1]: 12.5 µM (active)
AC50 [2]: > 70 µM (inactive)
AC50 [3]: 5.34 µM (active)

COc1ccc(C(=O)N[C@H]2CCCCNC2=O)cc1OC1CCN(C(C)C)CC1
IC50 [4]: 15.1 µM (active)

CC(/C=C/c1ccccc1)=N\NC(=O)c1ccc2c(c1)OCCO2
IC50 (cells): 25.7 µM (active)

CC[C@]1(C(=O)OC)[C@H]2C(=O)N(Cc3ccccc3)C(=O)[C@H]2[C@H]2CN=C(SCc3ccc(Cl)cc3)N21
AC50 (HEK293): 3.31 µM (active)

c1ccc(CN2CCN(c3nc4ccccc4n4cnnc34)CC2)cc1
IC50 [4]: 1.82 µM (active)

O=C(O)/C=C/C(=O)c1ccc(O)cc1
IC50 (Genome polyprotein): > 100 µM (active)

O=C(c1c(O)c2ccccc2oc1=O)C1CCCCC1
IC50 [4]: 10 µM (active)

Cc1onc(-c2ccccc2Cl)c1C(=O)Nc1nnc(-c2cccc([N+](=O)[O-])c2)s1
IC50 [4]: 19.1 µM (active)

O=C(CN1C(=O)C2C3C=CC(C3)C2C1=O)Nc1ccc2c(c1)OCCO2 (configuration not stated)
AC50 (Cytochrome P450 2C9): 0.316 µM (inconclusive)
EC50 [5]: 22.4 µM (active)
IC50 (Leucine aminopeptidase): 21 µM (active)
EC50 [6]: 15.1 µM (active)
AC50 (Cytochrome P450 1A2): 15.8 µM (inconclusive)
EC50 (H4): 19 µM (active)

Reference: ChEMBL document CHEMBL1201862, “PubChem BioAssay data set” (2004)
